Data taken from patent publication US20230416248A1, “COMPOUNDS AND USES THEREOF” (Foghorn Therapeutics Inc., priority 2020, published 2023).
Like-named read-outs stand apart in the source and are kept apart here.

Experiments:
[1] = biological target: T1, BRM (Homo sapiens, UniProt P51531); assay: ATPase catalytic activity of BRM, ADP-Glo in vitro biochemical assay; details: for IC50: 30 nM BRM, 400 μM ATP; for Ratio* (BRG1 IC50 (μM) divided by BRM IC50 (μM)): selectivity ratio BRG1 IC50 / BRM IC50; for Ratio*: ratio of BRG1 IC50 to BRM IC50
T1 construct: made in house; host or cells: High Five insect cells
T1 sequence (P51531 whole entry): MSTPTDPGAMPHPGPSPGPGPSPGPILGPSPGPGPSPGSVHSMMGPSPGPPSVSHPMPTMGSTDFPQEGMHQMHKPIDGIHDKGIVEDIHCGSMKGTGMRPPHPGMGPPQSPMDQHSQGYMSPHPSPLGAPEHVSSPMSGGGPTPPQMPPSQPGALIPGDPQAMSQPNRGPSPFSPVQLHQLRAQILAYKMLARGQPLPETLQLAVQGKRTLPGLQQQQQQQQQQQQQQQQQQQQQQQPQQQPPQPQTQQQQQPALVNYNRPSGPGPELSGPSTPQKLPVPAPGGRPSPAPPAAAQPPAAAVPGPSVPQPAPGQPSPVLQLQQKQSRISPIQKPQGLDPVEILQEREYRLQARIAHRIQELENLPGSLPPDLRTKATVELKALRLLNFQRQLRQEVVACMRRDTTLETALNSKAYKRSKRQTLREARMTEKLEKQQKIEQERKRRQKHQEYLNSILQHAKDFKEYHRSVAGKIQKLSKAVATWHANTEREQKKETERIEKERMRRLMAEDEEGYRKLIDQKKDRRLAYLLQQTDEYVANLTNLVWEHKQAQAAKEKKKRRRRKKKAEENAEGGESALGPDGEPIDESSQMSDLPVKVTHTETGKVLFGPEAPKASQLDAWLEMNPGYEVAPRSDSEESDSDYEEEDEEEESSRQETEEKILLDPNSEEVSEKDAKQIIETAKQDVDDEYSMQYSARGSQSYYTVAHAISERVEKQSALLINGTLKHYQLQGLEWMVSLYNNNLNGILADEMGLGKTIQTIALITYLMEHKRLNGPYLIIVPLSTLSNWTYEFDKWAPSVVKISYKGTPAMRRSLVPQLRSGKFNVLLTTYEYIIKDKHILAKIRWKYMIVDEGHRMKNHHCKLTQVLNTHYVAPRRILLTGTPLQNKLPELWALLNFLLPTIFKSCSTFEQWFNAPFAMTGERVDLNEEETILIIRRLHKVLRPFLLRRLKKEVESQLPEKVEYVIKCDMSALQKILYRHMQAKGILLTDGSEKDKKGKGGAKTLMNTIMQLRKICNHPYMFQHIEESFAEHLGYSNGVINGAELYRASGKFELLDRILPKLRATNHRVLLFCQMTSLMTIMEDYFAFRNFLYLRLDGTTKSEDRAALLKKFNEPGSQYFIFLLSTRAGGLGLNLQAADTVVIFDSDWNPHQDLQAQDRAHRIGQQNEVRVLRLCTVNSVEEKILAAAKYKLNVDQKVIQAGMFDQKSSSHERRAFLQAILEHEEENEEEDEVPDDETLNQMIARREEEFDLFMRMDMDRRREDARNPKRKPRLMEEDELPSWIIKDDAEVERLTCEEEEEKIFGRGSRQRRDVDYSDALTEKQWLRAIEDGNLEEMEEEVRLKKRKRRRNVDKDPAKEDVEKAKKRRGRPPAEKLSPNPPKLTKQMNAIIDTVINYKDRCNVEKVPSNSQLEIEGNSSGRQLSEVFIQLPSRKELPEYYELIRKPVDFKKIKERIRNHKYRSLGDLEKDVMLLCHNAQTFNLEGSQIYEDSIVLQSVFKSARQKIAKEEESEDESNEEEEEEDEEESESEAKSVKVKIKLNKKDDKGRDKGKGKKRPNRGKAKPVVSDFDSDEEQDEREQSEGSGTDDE
Outline: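 Recombinant BRM (30 nM) hydrolysed 400 μM ATP with 20 nM salmon sperm DNA in pH 8 Tris buffer containing 20 mM MgCl2, 50 mM NaCl, 0.1% Tween-20 and 1 mM DTT, 1 h at room temperature. ADP formed was quantified by ADP-Glo luminescence.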

[2] = biological target: T2, BRG-1 (Homo sapiens, UniProt P51532); assay: ATPase catalytic activity of BRG-1, ADP-Glo in vitro biochemical assay; details: 30 nM BRG-1, 400 μM ATP, read-out: BRG1 IC50
T2 construct: made in house; host or cells: High Five insect cells
T2 sequence (P51532 whole entry): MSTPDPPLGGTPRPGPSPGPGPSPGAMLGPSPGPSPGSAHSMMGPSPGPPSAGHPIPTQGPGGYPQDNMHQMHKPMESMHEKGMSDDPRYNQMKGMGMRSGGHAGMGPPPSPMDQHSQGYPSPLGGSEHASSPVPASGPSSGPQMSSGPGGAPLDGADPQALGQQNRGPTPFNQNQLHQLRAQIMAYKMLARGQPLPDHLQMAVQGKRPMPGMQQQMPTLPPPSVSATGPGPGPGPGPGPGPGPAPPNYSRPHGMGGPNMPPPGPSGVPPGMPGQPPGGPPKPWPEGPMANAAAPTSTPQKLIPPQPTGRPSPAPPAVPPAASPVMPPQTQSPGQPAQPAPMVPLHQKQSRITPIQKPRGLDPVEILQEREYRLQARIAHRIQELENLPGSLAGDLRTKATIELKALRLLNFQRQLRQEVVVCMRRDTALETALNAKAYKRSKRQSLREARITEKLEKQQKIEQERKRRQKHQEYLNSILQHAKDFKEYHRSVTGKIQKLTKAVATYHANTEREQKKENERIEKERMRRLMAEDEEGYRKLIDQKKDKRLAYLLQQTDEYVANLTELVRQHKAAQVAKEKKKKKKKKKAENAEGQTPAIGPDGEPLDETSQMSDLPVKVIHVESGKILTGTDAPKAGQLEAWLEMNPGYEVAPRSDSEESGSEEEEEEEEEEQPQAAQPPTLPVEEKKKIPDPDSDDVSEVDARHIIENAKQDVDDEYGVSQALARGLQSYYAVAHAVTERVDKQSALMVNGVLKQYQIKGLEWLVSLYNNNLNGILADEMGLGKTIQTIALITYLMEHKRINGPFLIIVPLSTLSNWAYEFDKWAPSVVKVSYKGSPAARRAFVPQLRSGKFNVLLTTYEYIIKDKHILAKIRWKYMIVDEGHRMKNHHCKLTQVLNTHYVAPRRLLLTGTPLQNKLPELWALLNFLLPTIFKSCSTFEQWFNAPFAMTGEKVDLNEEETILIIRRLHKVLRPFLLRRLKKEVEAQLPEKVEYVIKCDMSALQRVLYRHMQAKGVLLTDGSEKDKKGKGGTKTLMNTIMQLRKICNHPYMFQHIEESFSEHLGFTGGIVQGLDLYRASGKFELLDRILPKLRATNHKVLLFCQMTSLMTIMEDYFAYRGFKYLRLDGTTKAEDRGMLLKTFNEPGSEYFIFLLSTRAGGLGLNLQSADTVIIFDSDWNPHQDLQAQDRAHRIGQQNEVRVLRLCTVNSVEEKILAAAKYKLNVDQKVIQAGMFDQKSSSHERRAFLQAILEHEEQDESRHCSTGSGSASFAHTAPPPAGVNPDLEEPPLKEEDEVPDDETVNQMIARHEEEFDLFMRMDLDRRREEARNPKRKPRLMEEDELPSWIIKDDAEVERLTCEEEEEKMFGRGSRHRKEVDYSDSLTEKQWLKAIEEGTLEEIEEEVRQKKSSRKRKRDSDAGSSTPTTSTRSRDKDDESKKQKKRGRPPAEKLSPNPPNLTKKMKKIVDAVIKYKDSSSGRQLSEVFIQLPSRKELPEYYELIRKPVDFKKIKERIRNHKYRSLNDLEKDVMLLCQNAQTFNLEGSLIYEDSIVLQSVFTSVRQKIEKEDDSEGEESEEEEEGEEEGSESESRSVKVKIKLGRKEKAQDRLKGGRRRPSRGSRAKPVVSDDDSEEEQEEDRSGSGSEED
Outline: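 Biochemical ADP-Glo assay, BRG-1. Post-reaction: ATP depletion reagent, 40 min RT; ADP→ATP conversion/detection reagent, 60 min RT; luminescence read on plate luminometer.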

[3] = ATPase catalytic activity, ADP-Glo

IC50 ([1]; ADP-Glo ATPase assay) [nM]	Ratio* (BRG1 IC50 (μM) divided by BRM IC50 (μM)) [1]	IC50 ([2]; ADP-Glo ATPase assay) [nM]	IC50 [1, 3] [nM]	Ratio* [1]	IC50 [2, 3] [nM]	SMILES
212	10.26	2170	–	–	–	CC(C)(F)c1cccc(-c2ccc3cnc(CNC(=O)c4ccc5c(c4)S(=O)(=O)CCOC5)cc3n2)n1 [Compound 280]
197	17.67	3480	–	–	–	Cc1ccc(C(=O)NCc2cc3nc(-c4cncc(C5CC5)n4)ccc3cn2)cc1S(=O)(=O)N(C)C [Compound 283]
12.1	14.69	178	–	–	–	CN(C)c1cccc(-c2ccc3cnc(CNC(=O)c4cc(F)c5c(c4)S(=O)(=O)CCOC5)cc3n2)n1 [Compound 284]
351	13.91	4890	–	–	–	N=S1(=O)CCOCc2ccc(C(=O)NCc3cc4nc(-c5cncc(C6CC6)n5)ccc4cn3)cc21 (stereo not drawn) [Compound 286]
24.2	24.53	594	–	–	–	O=C(NCc1cc2nc(-c3cncc(C4CC4)n3)ccc2cn1)c1cc(F)c2c(c1)S(=O)(=O)CCOC2 [Compound 287]
197	17.58	3460	–	–	–	CN(C)S(=O)(=O)c1cc(C(=O)NCc2cc3nc(-c4cncc(C5CC5)n4)ccc3cn2)ccc1Cl [Compound 288]
667	7.50	5000	–	–	–	CS(=O)(=O)c1cc(C(=O)NCc2cc3nc(-c4cncc(C5CC5)n4)ccc3cn2)ccc1F [Compound 292]
223	10.84	2410	–	–	–	O=C(NCc1cc2nc(-c3cncc(C4CC4)n3)ccc2cn1)c1ccc2c(c1)S(=O)(=O)NCCC2 [Compound 293]
156	17.37	2710	–	–	–	CS(=O)(=O)c1cc(C(=O)NCc2cc3nc(-c4cncc(C5CC5)n4)ccc3cn2)ccc1Cl [Compound 294]
385	12.98	5000	–	–	–	CS(=O)(=O)c1cc(F)cc(C(=O)NCc2cc3nc(-c4cncc(C5CC5)n4)ccc3cn2)c1 [Compound 295]
316	15.84	5000	–	–	–	CC(C)S(=O)(=O)c1cccc(C(=O)NCc2cc3nc(-c4cncc(C5CC5)n4)ccc3cn2)c1 [Compound 296]
140	14.47	2030	–	–	–	CN1CCCc2ccc(C(=O)NCc3cc4nc(-c5cncc(C6CC6)n5)ccc4cn3)cc2S1(=O)=O [Compound 297]
221	9.90	2190	–	–	–	Cc1ncc(C(=O)NCc2cc3nc(-c4cncc(C5CC5)n4)ccc3cn2)cc1S(C)(=O)=O [Compound 298]
869	7.32	6360	–	–	–	O=C(NCc1cc2nc(-c3cncc(C4CC4)n3)ccc2cn1)c1ccc2c(c1)[S+]([O-])CCOC2 (stereo not drawn) [Compound 299]
64.7	11.32	733	–	–	–	Cc1ccc(C(=O)NCc2cc3nc(-c4cncc(C5CC5)n4)ccc3cn2)cc1S(C)(=O)=O [Compound 300]
858	10.34	8880	–	–	–	CN(C)S(=O)(=O)c1cccc(C(=O)NCc2cc3nc(-c4cncc(C5CC5)n4)ccc3cn2)c1 [Compound 301]
277	8.50	2350	–	–	–	O=C(NCc1cc2nc(-c3cncc(C4CC4)n3)ccc2cn1)c1ccc2c(c1)S(=O)(=O)CCCO2 [Compound 302]
12.3	12.63	156	–	–	–	CN(C)c1cccc(-c2ccc3cnc(CNC(=O)c4ccc5c(c4)S(=O)(=O)CCOC5)cc3n2)n1 [Compound 303]
30	9.32	279	–	–	–	O=C(NCc1cc2nc(-c3cncc(C4CC4)n3)ccc2cn1)c1ccc2c(c1)S(=O)(=O)CCOC2 [Compound 305]
855	4.98	4250	–	–	–	CS(=O)(=O)c1cncc(C(=O)NCc2cc3nc(-c4cncc(C5CC5)n4)ccc3cn2)c1 [Compound 306]

Continued, molecule first:

SMILES	IC50 ([1]; ADP-Glo ATPase assay) [nM]	Ratio* (BRG1 IC50 (μM) divided by BRM IC50 (μM)) [1]	IC50 ([2]; ADP-Glo ATPase assay) [nM]	IC50 [1, 3] [nM]	Ratio* [1]	IC50 [2, 3] [nM]
CC(F)(F)c1cccc(-c2ccc3cnc(CNC(=O)c4ccc5c(c4)S(=O)(=O)CCOC5)cc3n2)n1 [Compound 281]	82.8	19.92	1650	–	–	–
C[C@@H]1CN(c2cccc(-c3ccc4cnc(CNC(=O)c5ccc6c(c5)S(=O)(=O)CCOC6)cc4n3)n2)C[C@H](C)O1 [Compound 282]	4.2	4.64	19.3	–	–	–
O=C(NCc1cc2nc(-c3cccc(OC(F)F)n3)ccc2cn1)c1ccc2c(c1)S(=O)(=O)CCOC2 [Compound 285]	19.3	25.69	497	–	–	–
CC(C)c1cccc(-c2ccc3cnc(CNC(=O)c4ccc5c(c4)S(=O)(=O)CCOC5)cc3n2)n1 [Compound 289]	59.8	16.01	958	–	–	–
O=C(NCc1cc2c(cn1)CCN(c1cncc(C3CC3)n1)C2)c1ccc2c(c1)S(=O)(=O)CCOC2 [Compound 290]	172	7.19	1240	–	–	–
[2H]C([2H])([2H])N(c1cccc(-c2ccc3cnc(CNC(=O)c4ccc5c(c4)S(=O)(=O)CCOC5)cc3n2)n1)C([2H])([2H])[2H] [Compound 291]	10.3	9.47	97.2	–	–	–
O=C(NCc1cc2nc(-c3cccc(N4CCC4)n3)ccc2cn1)c1ccc2c(c1)S(=O)(=O)CCOC2 [Compound 304, N-[[2-[6-(azetidin-1-yl)-2-pyridyl]-1,6-naphthyridin-7-yl]methyl]-1,1-dioxo-3,5-dihydro-2H-4,1λ6-benzoxathiepine-8-carboxamide]	9.4	14.43	136	–	–	–
O=C(NCc1cc2nc(-c3cccc(N4CCCC(F)(F)C4)n3)ccc2cn1)c1ccc2c(c1)S(=O)(=O)CCOC2 [Compound 308]	5.4	2.91	15.8	–	–	–
COC[C@@H]1C[C@H]1N(C)c1cccc(-c2ccc3cnc(CNC(=O)c4ccc5c(c4)S(=O)(=O)CCOC5)cc3n2)n1 [Compound 311]	–	–	–	22	12.86	283
COC[C@H]1C[C@@H]1N(C)c1cccc(-c2ccc3cnc(CNC(=O)c4ccc5c(c4)S(=O)(=O)CCOC5)cc3n2)n1 [Compound 312]	–	–	–	24.5	13.30	326
COCCN1CCCOc2c(-c3ccc4cnc(CNC(=O)c5ccc6c(c5)S(=O)(=O)CCOC6)cc4n3)cccc21 [Compound 313]	–	–	–	105	3.69	387
CN(CC1(F)COC1)c1cccc(-c2ccc3cnc(CNC(=O)c4ccc5c(c4)S(=O)(=O)CCOC5)cc3n2)n1 [Compound 314]	–	–	–	45.7	10.51	480
Cc1ccc2c(n1)N(c1ccc3cnc(CNC(=O)c4ccc5c(c4)S(=O)(=O)CCOC5)cc3n1)CCC2 [Compound 315]	–	–	–	18.4	18.47	340
COc1cc(CC(F)F)ccc1-c1ccc2cnc(CNC(=O)c3ccc4c(c3)S(=O)(=O)CCOC4)cc2n1 [Compound 316]	–	–	–	47.1	10.49	495
C[C@]1(F)CCCN(c2cccc(-c3ccc4cnc(CNC(=O)c5ccc6c(c5)S(=O)(=O)CCOC6)cc4n3)n2)C1 [Compound 317]	–	–	–	6.3	5.55	34.8
C[C@@]1(F)CCCN(c2cccc(-c3ccc4cnc(CNC(=O)c5ccc6c(c5)S(=O)(=O)CCOC6)cc4n3)n2)C1 [Compound 318]	–	–	–	9.4	8.53	80.4
CC1COCc2ccc(C(=O)NCc3cc4nc(-c5cccc(N6C[C@@H](C)O[C@@H](C)C6)n5)ccc4cn3)cc2S1(=O)=O (stereo partly drawn) [Compound 319]	–	–	–	21.1	15.59	329
COc1cc(C(F)F)ccc1-c1ccc2cnc(CNC(=O)c3ccc4c(c3)S(=O)(=O)[C@@H](C)COC4)cc2n1 [Compound 320]	–	–	–	12	18.81	226
O=C(NCc1cc2nc(-c3cccc(N4CC[C@@H]5C[C@@H]5C4)n3)ccc2cn1)c1ccc2c(c1)S(=O)(=O)CCOC2 [Compound 321]	–	–	–	16	12.19	195
O=C(NCc1cc2nc(-c3cccc(N4CC[C@H]5C[C@H]5C4)n3)ccc2cn1)c1ccc2c(c1)S(=O)(=O)CCOC2 [Compound 322]	–	–	–	11	10.96	120
COC1(CN(C)c2cccc(-c3ccc4cnc(CNC(=O)c5ccc6c(c5)S(=O)(=O)CCOC6)cc4n3)n2)CC1 [Compound 323]	–	–	–	17.1	13.46	230
CC1CCc2ccc(C(=O)NCc3cc4nc(-c5cccc(N6C[C@@H](C)O[C@@H](C)C6)n5)ccc4cn3)cc2S1(=O)=O (stereo partly drawn) [Compound 324]	–	–	–	24.8	24.73	614
